Measurements reported in PubChem BioAssay (NCI).
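Briefly, cells in 96-well plates were exposed to five compound concentrations for 48 h, and endpoints were estimated by linear interpolation. GI50 = concentration required for 50% inhibition of growth. The concentration for full growth arrest is given as TGI.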

Legend:
Test in all cases: NCI-60 cell line screen, 48 h
BT-549 breast = tested on: BT-549 breast
MCF7 breast = tested on: MCF7 breast
HCT-15 colon = tested on: HCT-15 colon
A498 renal = tested on: A498 renal
UO-31 renal = tested on: UO-31 renal
HCC-2998 colon = tested on: HCC-2998 colon
HCT-116 colon = tested on: HCT-116 colon
M14 melanoma = tested on: M14 melanoma
SK-OV-3 ovarian = tested on: SK-OV-3 ovarian
HS 578T breast = tested on: HS 578T breast

SMILES | TGI (BT-549 breast) [µM] | TGI (MCF7 breast) [µM] | TGI (HCT-15 colon) [µM] | TGI (A498 renal) [µM] | TGI (UO-31 renal) [µM] | TGI (HCC-2998 colon) [µM] | TGI (HCT-116 colon) [µM] | TGI (M14 melanoma) [µM] | TGI (SK-OV-3 ovarian) [µM] | TGI (HS 578T breast) [µM] | GI50 (BT-549 breast) [µM] | GI50 (MCF7 breast) [µM] | GI50 (HCT-15 colon) [µM] | GI50 (A498 renal) [µM] | GI50 (UO-31 renal) [µM] | GI50 (HCC-2998 colon) [µM] | GI50 (HCT-116 colon) [µM] | GI50 (M14 melanoma) [µM] | GI50 (SK-OV-3 ovarian) [µM] | GI50 (HS 578T breast) [µM]
O=C(CN1C(=O)c2ccccc2C1=O)C(O)CN1C(=O)c2ccccc2C1=O (configuration not stated) | > 100 | > 100 | > 100 | > 100 | > 100 | > 100 | > 100 | > 100 | > 100 | > 100 | – | – | – | – | – | – | – | – | – | –
N#Cc1nc2cc(F)c(F)cc2nc1-c1ccc(Cl)cc1 | 40.3 | > 100 | 2.76 | > 100 | 38.1 | 17.6 | 29.2 | 23.8 | > 88 | 4.43 | 19.8 | 13.1 | 1.44 | 82 | 12.2 | 3.93 | 10.7 | 7.93 | > 46.7 | 1.72
Cc1ccc(/C=C2\CCCC\C2=N\O)cc1 | – | – | > 100 | > 100 | 84 | > 100 | > 100 | > 100 | > 100 | – | – | – | – | – | – | – | – | – | – | –
Clc1nc(Cl)c(Cc2ccccc2)c(Cl)n1 | 8.52 | 21.4 | 85 | – | 33.2 | 66.1 | 4.73 | 8.38 | 28.9 | 19.9 | – | – | – | – | – | – | – | – | – | –
CSC1C(=O)c2ccccc2/C(=N/Nc2nc3ccccc3s2)C1C (configuration not stated) | 19.6 | 34.7 | 15.8 | – | 13.8 | – | 28.8 | 33.1 | > 50 | 27.9 | 8.52 | 5.52 | 7.58 | – | 6.02 | – | 4.67 | 14.6 | 35.2 | 7.26
CC(=O)c1c[nH]cc1CO | – | > 10 | > 10 | > 10 | > 10 | > 10 | > 10 | > 10 | > 10 | – | – | – | – | – | – | – | – | – | – | –
c1ccc(SC(CCCCOC2CCCCO2)Sc2ccccc2)cc1 (configuration not stated) | – | – | > 100 | > 100 | 76.5 | > 100 | > 100 | > 100 | > 100 | – | – | – | – | – | – | – | – | – | – | –
CS/C(c1ccccc1)=[N+](/C)[O-] | – | – | 41.1 | > 100 | > 100 | > 100 | > 100 | > 100 | > 100 | – | – | – | – | – | – | – | – | – | – | –
CC(C)CCc1c(Cl)nc(Cl)nc1Cl | 12.3 | 40.7 | > 100 | – | 35.3 | 64 | 9.3 | 15.3 | 37.6 | 56.8 | – | – | – | – | – | – | – | – | – | –
COc1cccc2c(=O)c3c(sc12)c(NCCN(C)C)nc1ccccc13 | 10.1 | 2.7 | 2.41 | 2.93 | 2 | 3.02 | 1.85 | 2.94 | – | 4.81 | 2.31 | 1.25 | 1.06 | 1.49 | 0.461 | 1.47 | 0.538 | 1.56 | – | 1.69
O=C1/C(=C/c2ccc(Cl)cc2)COc2ccc(O)c(O)c21 | 4.04 | 2.15 | 4.18 | 9.19 | 1.84 | 2.96 | – | 4.77 | > 100 | 7.02 | 1.77 | 0.332 | 0.356 | 2.95 | 0.458 | 1.51 | – | 1.92 | 2.49 | 1.8
O=C(NCP(=O)(O)O)c1cccnc1 | > 100 | > 100 | > 100 | > 100 | > 100 | – | > 100 | > 100 | > 100 | – | – | – | – | – | – | – | – | – | – | –
COc1ccc2c(c1)CC1c3c(cc4c(c3-2)OCO4)CCN1C (configuration not stated) | – | – | > 100 | 31.7 | 36.6 | > 100 | 70.6 | 62.9 | 69.1 | – | – | – | – | – | – | – | – | – | – | –
O=C1C[C@H]2CC3(CC[C@H]2CN1)OCCO3 | – | – | > 100 | > 100 | > 100 | > 100 | > 100 | > 100 | > 100 | – | – | – | – | – | – | – | – | – | – | –
C/C(=C\CC[C@]1(C)OC(C)(C)OC1CC/C(C)=C/CO[Si](c1ccccc1)(c1ccccc1)C(C)(C)C)CC/C=C/CO[Si](C)(C)C(C)(C)C (some centres not stated) | – | – | > 100 | > 100 | > 100 | > 100 | > 100 | > 100 | > 100 | – | – | – | – | – | – | – | – | – | – | –
COC(=O)c1cc2oc(/C=C3\SC(=S)N(NC(C)=O)C3=O)cc2n1Cc1ccccc1 | 28.7 | > 50 | 8.56 | 16.8 | > 50 | – | 14.3 | 16.4 | 15.5 | > 50 | 3.34 | 2.53 | 1.54 | 8.07 | 8.88 | – | 7.62 | 8.04 | 6.33 | 6.61
CCCN(CCC)C(=O)[C@H](CC)[C@@H]1CC[C@@H](C)[C@@H]([C@H](C)[C@@H](O)[C@@H](C)C(=O)[C@H](CC)C2O[C@]3(C=C[C@@H](O)[C@]4(CC[C@@](C)([C@H]5CC[C@](O)(CC)[C@H](C)O5)O4)O3)[C@H](C)C[C@@H]2C)O1 (some centres not stated) | 13.2 | 7.76 | 5.61 | 5.85 | 7.03 | 5.76 | 5.98 | – | 19.9 | 9.01 | 3.05 | 2.46 | 2.24 | 2.13 | 2.12 | 2.18 | 2.16 | – | 3.29 | 2.75
C=CC(=O)Nc1cccc(C)c1Nc1ncc2cc(-c3c(Cl)c(OC)cc(OC)c3Cl)ccc2n1 | 9.34 | > 100 | > 100 | – | 61.5 | 31.9 | 24.9 | 57.2 | 82.6 | > 100 | 1.64 | 1.97 | 4.21 | – | 3.66 | 12.4 | 6.36 | 7.44 | 18.3 | 13.8
